This is an account of results in patent US8338465B2, “Cyclic carboxylic acid rhodanine derivatives for the treatment and prevention of tuberculosis” (priority 2006, dated 2012).

The first assay deals with T1, dihydrolipoamide acyltransferase (DlaT) (Mycobacterium tuberculosis, UniProt P9WIS7).
T1 sequence (P9WIS7 1-553): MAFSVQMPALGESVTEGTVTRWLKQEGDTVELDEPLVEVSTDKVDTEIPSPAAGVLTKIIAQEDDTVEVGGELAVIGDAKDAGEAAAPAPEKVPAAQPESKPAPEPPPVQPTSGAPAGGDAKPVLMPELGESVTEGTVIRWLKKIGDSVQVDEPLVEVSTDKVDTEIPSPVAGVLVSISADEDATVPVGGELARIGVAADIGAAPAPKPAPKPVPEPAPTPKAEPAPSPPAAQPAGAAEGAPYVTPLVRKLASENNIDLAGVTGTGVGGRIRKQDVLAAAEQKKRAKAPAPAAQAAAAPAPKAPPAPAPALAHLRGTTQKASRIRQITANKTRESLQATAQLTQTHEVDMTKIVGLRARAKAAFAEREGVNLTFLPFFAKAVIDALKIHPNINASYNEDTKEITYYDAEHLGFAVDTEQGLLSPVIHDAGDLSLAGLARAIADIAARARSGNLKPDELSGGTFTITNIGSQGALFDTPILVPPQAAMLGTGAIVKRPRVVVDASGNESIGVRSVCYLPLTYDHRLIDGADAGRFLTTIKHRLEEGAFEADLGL
Put plainly: DlaT inhibition (Dlat IC50); DTNB peroxidase assay with Lpd, DlaT and AhpD. The format is biochemical. As to conditions: Dlat IC50 category, Table 20, Prodrugs (Compounds T1 to T8).
For `O=C(NC(CO)(CO)CO)c1cccc(N2C(=O)C(=Cc3ccc(-c4ccccc4Cl)o3)SC2=S)c1` [Compound T6, 3-{5-[1-[5-(2-Chloro-phenyl)-furan-2-yl]-methylidene]-4-oxo-2-thioxo-thiazolidin-3-yl}-N-(2-hydroxy-1,1-bis-hydroxymethyl-ethyl)-benzamide], the concentration for half-maximal inhibition (IC50) (usually the concentration that inhibits the measured activity by half) fell in the range of 11 to 40 µM.

As to `O=C(NC(CO)CO)c1cccc(N2C(=O)C(=Cc3ccc(-c4ccccc4Cl)o3)SC2=S)c1` [Compound T7, 3-{5-[1-[5-(2-Chloro-phenyl)-furan-2-yl]-methylidene]-4-oxo-2-thioxo-thiazolidin-3-yl}-N-(2-hydroxy-1-hydroxymethyl-ethyl)-benzamide], the IC50 lay within 11 to 40 µM.

For `O=C(OCCN(CCO)CCO)c1cccc(N2C(=O)C(=Cc3ccc(-c4ccccc4Cl)o3)SC2=S)c1` [Compound T8, 3-{5-[1-[5-(2-Chloro-phenyl)-furan-2-yl]-methylidene]-4-oxo-2-thioxo-thiazolidin-3-yl}-benzoic acid 2-[bis-(2-hydroxy-ethyl)-amino]-ethyl ester], the IC50 is 41 to 80 µM.

The same assay, now with this note: Dlat IC50 category, Table 21, Prodrugs (Examples U1 to U10).
Take `CNS(=O)(=O)c1ccc(-c2ccc(C=C3SC(=S)N(C4CCCC(C(=O)OCCCO)C4)C3=O)o2)cc1` (stereo not shown) [Compound U2, 3-{5-[1-[5-(4-Methylsulfamoyl-phenyl)-furan-2-yl]-methylidene]-4-oxo-2-thioxo-thiazolidin-3-yl}-cyclohexanecarboxylic acid 3-hydroxy-propyl ester]: the 50% inhibitory concentration (IC50) lay in the range of 11 to 40 µM.

With `CSc1ccc(-c2ccc(C=C3SC(=S)N(C4CCCC(C(=O)OCCO)C4)C3=O)o2)cc1` (stereo not shown) [Compound U3, 3-{5-[1-[5-(4-Methylsulfanyl-phenyl)-furan-2-yl]-methylidene]-4-oxo-2-thioxo-thiazolidin-3-yl}-cyclohexanecarboxylic acid 2-hydroxy-ethyl ester], the IC50 lay in the range of 41 to 80 µM.

In the case of `CSc1ccc(-c2ccc(C=C3SC(=S)N(C4CCCC(C(=O)OCCCCO)C4)C3=O)o2)cc1` (stereo not shown) [Compound U4, 3-{5-[1-[5-(4-Methylsulfanyl-phenyl)-furan-2-yl]-methylidene]-4-oxo-2-thioxo-thiazolidin-3-yl}-cyclohexanecarboxylic acid 4-hydroxy-butyl ester], the IC50 lay within 41 to 80 µM.

With `CSc1ccc(-c2ccc(C=C3SC(=S)N(C4CCCC(C(=O)OCC(CO)CO)C4)C3=O)o2)cc1` (stereo not shown) [Compound U5, 3-{5-[1-[5-(4-Methylsulfanyl-phenyl)-furan-2-yl]-methylidene]-4-oxo-2-thioxo-thiazolidin-3-yl}-cyclohexanecarboxylic acid 3-hydroxy-2-hydroxymethyl-propyl ester], the IC50 fell in the range of 11 to 40 µM.

Turning to `CSc1ccc(-c2ccc(C=C3SC(=S)N(C4CCCC(C(=O)OCC(C)(CO)CO)C4)C3=O)o2)cc1` (stereo not shown) [Compound U6, 3-{5-[1-[5-(4-Methylsulfanyl-phenyl)-furan-2-yl]-methylidene]-4-oxo-2-thioxo-thiazolidin-3-yl}-cyclohexanecarboxylic acid 3-hydroxy-2-hydroxymethyl-2-methyl-propyl ester], the IC50 lay within 41 to 80 µM.

On to `CSc1ccc(-c2ccc(C=C3SC(=S)N(C4CCCC(C(=O)NC(CO)(CO)CO)C4)C3=O)o2)cc1` (stereo not shown) [Compound U7, 3-{5-[1-[5-(4-Methylsulfanyl-phenyl)-furan-2-yl]-methylidene]-4-oxo-2-thioxo-thiazolidin-3-yl}-cyclohexanecarboxylic acid (2-hydroxy-1,1-bis-hydroxymethyl-ethyl)-amide], for which the IC50 fell in the range of 41 to 80 µM.

The assay is the same for the next values; noted with them: Table 20, Prodrugs (Compounds T1 to T8); read-out: Dlat IC50 category.
In the case of `CC(CO)(CO)COC(=O)c1cccc(N2C(=O)C(=Cc3ccc(-c4ccccc4Cl)o3)SC2=S)c1` [Compound T5, 3-{5-[1-[5-(2-Chloro-phenyl)-furan-2-yl]-methylidene]-4-oxo-2-thioxo-thiazolidin-3-yl}-benzoic acid 3-hydroxy-2-hydroxymethyl-2-methyl propyl ester], the IC50 was in the range of 11 to 40 µM.
